Experimental data taken from US7563787B2, “Substituted pyrazole compounds” (Miikana Therapeutics, Inc., priority 2005, dated 2009).

How the values were obtained:
Assay type in all cases: biochemical
[1] = target: T1, ABL1 E255K (Homo sapiens, UniProt P00519, E255K); assay: Kinase Selectivity Assay; details: read-out: Percent Inhibition at 1 μM
T1 construct: purchased Invitrogen, Carlsbad, Calif
Procedure: (§1) Compounds were assayed for inhibitory activity against a panel of different kinase enzymes at a concentration of 1 μM. Where appropriate, full-length enzymes or catalytically active fragments, with N-terminal or C-terminal His- or GST-tags, were used (Invitrogen, Carlsbad, Calif.). Test compounds were initially diluted to 100× test concentration in 100% DMSO. This 100× concentration was then diluted to a 4× working concentration in Kinase Buffer (50 mM HEPES pH 7.5, 0.01% Brij-35, 10 mM MgCl2, 1 mM EGTA) and 2.5 μL was then added to a low volume NBS, 384-well plate (Corning, Corning, N.Y.). Five μL of a 2× peptide/kinase mixture (Invitrogen, Carlsbad, Calif.), as appropriate (listed in Table 3), was then added and the reaction was then initiated by addition of 2.5 μL of a 4× working concentration of ATP in Kinase Buffer.

[2] = target: T2, FGFR1 (Homo sapiens, UniProt P11362); assay: Kinase Selectivity Assay; details: read-out: Percent Inhibition at 1 μM; further: ATP at apparent Km or 100 µM
T2 construct: purchased Invitrogen, Carlsbad, Calif
Procedure: as §1

[3] = target: T3, ABL1 G250E (Homo sapiens, UniProt P00519, G250E); assay: Kinase Selectivity Assay; details: read-out: Percent Inhibition at 1 μM; further: ATP at apparent Km or 100 µM
T3 construct: purchased Invitrogen, Carlsbad, Calif
Procedure: as §1

[4] = target: T4, LCK (Homo sapiens, UniProt P06239); assay: Kinase Selectivity Assay; details: read-out: Percent Inhibition at 1 μM; further: ATP at apparent Km or 100 µM
T4 construct: full-length enzymes or catalytically active fragments; purchased Invitrogen
Procedure: as §1

[5] = target: T5, SYK (Homo sapiens, UniProt P43405); assay: Kinase Selectivity Assay; details: read-out: Percent Inhibition at 1 μM
T5 construct: purchased Invitrogen, Carlsbad, Calif
Procedure: as §1

[6] = target: T6, ABL1 Y253F (Homo sapiens, UniProt P00519, Y253F); assay: Kinase Selectivity Assay; details: read-out: Percent Inhibition at 1 μM; further: ATP at apparent Km or 100 µM
T6 construct: purchased Invitrogen, Carlsbad, Calif
Procedure: as §1

[7] = target: SRC (Homo sapiens, UniProt P12931); assay: Src Kinase Inhibition Assay; parameters: His (N); purchased Upstate USA Inc, Charlottesville, Va; details: read-out: inhibition of Src at a concentration of 1 μM; 1 μM compound; 33P-ATP filter assay
Procedure: Compounds were assayed for Src kinase inhibitory activity using N-terminal His-tagged human Src (Upstate USA Inc, 706 Forest Street, Charlottesville, Va.).

[8] = target: T7, recombinant human KDR, residues 790-end (Homo sapiens, UniProt P35968); assay: KDR Kinase Inhibition Assay; details: read-out: inhibition of KDR at a concentration of 1 μM
T7 construct: recombinant human KDR, residues 790-end; His6 (N); purchased Upstate USA Inc, Charlottesville, Va
T7 sequence (P35968 790-1356 limits assumed): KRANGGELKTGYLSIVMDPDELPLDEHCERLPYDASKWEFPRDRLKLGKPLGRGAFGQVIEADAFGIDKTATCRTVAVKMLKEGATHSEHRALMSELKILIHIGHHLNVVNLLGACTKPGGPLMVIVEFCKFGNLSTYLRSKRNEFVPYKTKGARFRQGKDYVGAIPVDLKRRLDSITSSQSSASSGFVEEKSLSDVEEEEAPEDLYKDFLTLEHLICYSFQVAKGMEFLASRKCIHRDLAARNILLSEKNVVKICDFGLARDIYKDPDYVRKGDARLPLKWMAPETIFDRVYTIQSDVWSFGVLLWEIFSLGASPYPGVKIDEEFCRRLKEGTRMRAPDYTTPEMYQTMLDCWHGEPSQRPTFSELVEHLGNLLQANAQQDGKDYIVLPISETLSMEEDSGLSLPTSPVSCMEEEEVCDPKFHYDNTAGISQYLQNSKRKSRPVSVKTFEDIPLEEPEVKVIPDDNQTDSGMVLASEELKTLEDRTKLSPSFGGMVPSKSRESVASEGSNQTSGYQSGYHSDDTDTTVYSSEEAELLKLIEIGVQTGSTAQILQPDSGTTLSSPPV
Procedure: Compounds were assayed for KDR kinase inhibitory activity using N-terminal His6-tagged recombinant human KDR, residues 790-end (Upstate USA Inc, 706 Forest Street, Charlottesville, Va.). Serial dilutions of compound were assayed in a final reaction volume of 25 μL by incubating a solution of the above KDR kinase (5-10 mU), 8 mM MOPS (3-(N-morpholino) propanesulfonic acid) pH 7.0, 0.2 mM EDTA (ethylenediamine tetracetic acid), 0.33 mg/mL myelin basic protein (Upstate USA Inc, 706 Forest Street, Charlottesville, Virginia), and 10 mM magnesium acetate and [γ-^33P-ATP] (specific activity of about 500 cpm/pmol, concentration as required). The reaction was initiated by the addition of the magnesium acetate and [γ-^33P-ATP] mixture. After incubation for 40 minutes at room temperature, the reaction was stopped by the addition of 5 μL of a 3% phosphoric acid solution. A 10 μL aliquote of the reaction was then spotted onto a P30 filtermat (PerkinElmer, Wellesley, Mass.) and washed three times for five minutes in 75 mM phosphoric acid and once in methanol prior to drying and scintillation counting. Inhibition of KDR activity was determined by comparison to assays that contained no inhibitor.

Chain of SRC (P12931 whole entry): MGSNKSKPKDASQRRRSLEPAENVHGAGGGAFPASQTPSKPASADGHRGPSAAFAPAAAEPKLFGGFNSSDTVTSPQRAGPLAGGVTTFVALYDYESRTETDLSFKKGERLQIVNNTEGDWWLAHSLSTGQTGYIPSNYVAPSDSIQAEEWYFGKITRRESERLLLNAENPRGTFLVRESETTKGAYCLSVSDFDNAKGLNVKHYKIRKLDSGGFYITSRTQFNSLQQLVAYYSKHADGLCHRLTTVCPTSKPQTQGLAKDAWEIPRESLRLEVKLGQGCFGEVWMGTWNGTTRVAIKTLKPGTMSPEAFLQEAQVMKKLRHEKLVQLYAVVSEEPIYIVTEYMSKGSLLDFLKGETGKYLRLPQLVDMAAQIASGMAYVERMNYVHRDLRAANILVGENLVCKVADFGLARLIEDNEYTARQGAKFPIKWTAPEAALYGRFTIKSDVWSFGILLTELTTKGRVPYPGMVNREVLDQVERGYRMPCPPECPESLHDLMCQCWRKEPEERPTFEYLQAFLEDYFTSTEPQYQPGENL
T4 sequence (P06239 whole entry, the tested form may be a part): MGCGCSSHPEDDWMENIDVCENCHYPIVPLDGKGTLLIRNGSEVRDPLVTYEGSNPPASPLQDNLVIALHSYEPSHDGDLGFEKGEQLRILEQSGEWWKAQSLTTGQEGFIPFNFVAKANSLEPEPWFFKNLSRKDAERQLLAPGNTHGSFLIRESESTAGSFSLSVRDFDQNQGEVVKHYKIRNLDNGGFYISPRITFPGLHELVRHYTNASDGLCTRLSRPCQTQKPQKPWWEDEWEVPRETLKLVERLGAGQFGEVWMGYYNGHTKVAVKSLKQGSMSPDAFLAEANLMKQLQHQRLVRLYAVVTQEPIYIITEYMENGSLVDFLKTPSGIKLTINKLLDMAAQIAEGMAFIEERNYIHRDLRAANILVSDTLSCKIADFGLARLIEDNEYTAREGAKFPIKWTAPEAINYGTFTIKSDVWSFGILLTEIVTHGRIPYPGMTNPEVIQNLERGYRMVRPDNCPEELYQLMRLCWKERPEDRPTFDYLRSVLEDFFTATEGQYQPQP
T2 sequence (P11362 22-822): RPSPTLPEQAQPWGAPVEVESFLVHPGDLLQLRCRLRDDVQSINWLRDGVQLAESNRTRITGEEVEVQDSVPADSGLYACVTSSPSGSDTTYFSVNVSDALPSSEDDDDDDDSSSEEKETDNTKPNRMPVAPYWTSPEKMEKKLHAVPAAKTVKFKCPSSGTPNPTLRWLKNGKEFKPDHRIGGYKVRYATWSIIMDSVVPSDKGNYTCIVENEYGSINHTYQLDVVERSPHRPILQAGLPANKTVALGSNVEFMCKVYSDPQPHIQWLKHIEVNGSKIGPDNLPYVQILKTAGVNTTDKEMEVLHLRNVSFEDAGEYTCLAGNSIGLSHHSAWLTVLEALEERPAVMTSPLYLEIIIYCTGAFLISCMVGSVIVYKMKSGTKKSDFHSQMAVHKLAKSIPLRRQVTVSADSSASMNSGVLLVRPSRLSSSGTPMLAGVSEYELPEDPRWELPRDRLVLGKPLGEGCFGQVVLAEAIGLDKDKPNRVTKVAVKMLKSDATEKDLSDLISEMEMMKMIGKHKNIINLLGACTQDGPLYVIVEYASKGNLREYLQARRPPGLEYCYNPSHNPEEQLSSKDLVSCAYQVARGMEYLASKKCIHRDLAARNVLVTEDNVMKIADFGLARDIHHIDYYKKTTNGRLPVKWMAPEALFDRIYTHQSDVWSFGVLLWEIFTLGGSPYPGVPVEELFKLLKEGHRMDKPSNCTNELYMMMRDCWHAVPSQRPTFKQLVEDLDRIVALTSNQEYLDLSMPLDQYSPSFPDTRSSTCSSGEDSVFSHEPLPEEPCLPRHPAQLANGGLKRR

Compound	inhibition at 1 µM [1]	inhibition at 1 µM [2]	inhibition at 1 µM [3]	inhibition at 1 µM [4]	inhibition at 1 µM [5]	inhibition at 1 µM [6]	inhibition at 1 µM [7]	inhibition at 1 µM [8]
Cc1cc(Nc2nc(/C=C/c3ccccc3)nc(N3CCN(C)CC3)c2N)[nH]n1 [Example 10, 6-(4-methylpiperazin-1-yl)-N-(3-methyl-1H-pyrazol-5-yl)-2-[(E)-2-phenylvinyl]pyrimidin-4,5-diamine]	53%	46%	60%	81%	88%	57%	–	–
Cc1cc(Nc2cc(N3CCN(C)CC3)nc(/C=C/c3ccccc3)n2)n[nH]1 [Example 31, 6-(4-methylpiperazin-1-yl)-N-(3-methyl-1H-pyrazol-5-yl)-2-[(E)-2-phenylvinyl]pyrimidin-4-amine]	–	–	–	–	–	–	~95%	~94%
